# Assay results reported in ChEMBL document CHEMBL1154295, “Potent and selective steroidal inhibitors of 17beta-hydroxysteroid dehydrogenase type 7, an enzyme that catalyzes the reduction of the key hormones estrone and dihydrotestosterone” (J Med Chem, 2009).
# Molecular target: T1, 3-keto-steroid reductase/17-beta-hydroxysteroid dehydrogenase 7 (Homo sapiens) (UniProt P56937)
# T1 sequence (whole entry): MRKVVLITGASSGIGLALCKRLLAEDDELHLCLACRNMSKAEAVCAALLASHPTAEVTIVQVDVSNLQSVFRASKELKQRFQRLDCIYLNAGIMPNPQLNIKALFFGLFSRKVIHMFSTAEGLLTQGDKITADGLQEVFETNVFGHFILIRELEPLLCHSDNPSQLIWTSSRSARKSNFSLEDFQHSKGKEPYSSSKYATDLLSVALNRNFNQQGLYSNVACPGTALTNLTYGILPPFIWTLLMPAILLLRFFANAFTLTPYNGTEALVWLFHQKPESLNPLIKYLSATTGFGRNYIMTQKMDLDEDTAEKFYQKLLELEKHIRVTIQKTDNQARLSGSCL
# Settings: HEK293, at 0.3 µM
# Description: Inhibition of human 17beta-HSD7 expressed in HEK293 cells assessed as inhibition of reduction of [14C]estrone into [14C]estradiol at 0.3 uM after 7 hrs
row,SMILES,inhibition [%]
1,CCCCCCCCCCCCN(C(=O)c1ccc(Cl)cc1)[C@H]1CC[C@H]2[C@@H]3CC[C@H]4N(C)C(=O)CC[C@]4(C)[C@H]3CC[C@]12C,40
2,CCCCCCCCCCCCN(C(=O)c1ccccc1Cl)[C@H]1CC[C@H]2[C@@H]3CC[C@H]4N(C)C(=O)CC[C@]4(C)[C@H]3CC[C@]12C,46
3,CCCCCCCCCCN(C(=O)c1ccc(C(C)(C)C)cc1)[C@H]1CC[C@H]2[C@@H]3CC[C@H]4N(C)C(=O)CC[C@]4(C)[C@H]3CC[C@]12C,4
4,CCCCCCCCCCN(C(=O)c1ccc(Cl)cc1)[C@H]1CC[C@H]2[C@@H]3CC[C@H]4N(C)C(=O)CC[C@]4(C)[C@H]3CC[C@]12C,58
5,CCCCCCCCCCN(C(=O)c1cc(F)cc(F)c1)[C@H]1CC[C@H]2[C@@H]3CC[C@H]4N(C)C(=O)CC[C@]4(C)[C@H]3CC[C@]12C,38
6,CCCCCCCN(C(=O)c1c(F)c(F)c(F)c(F)c1F)[C@H]1CC[C@H]2[C@@H]3CC[C@H]4N(C)C(=O)CC[C@]4(C)[C@H]3CC[C@]12C,67
7,CCCCCCCN(C(=O)c1c(Cl)cccc1Cl)[C@H]1CC[C@H]2[C@@H]3CC[C@H]4N(C)C(=O)CC[C@]4(C)[C@H]3CC[C@]12C,28
8,CCCCCCCN(C(=O)c1ccc(CCl)cc1)[C@H]1CC[C@H]2[C@@H]3CC[C@H]4N(C)C(=O)CC[C@]4(C)[C@H]3CC[C@]12C,50
9,CCCCCCCCCCCCN(C(=O)c1c(Cl)cccc1Cl)[C@H]1CC[C@H]2[C@@H]3CC[C@H]4N(C)C(=O)CC[C@]4(C)[C@H]3CC[C@]12C,18
10,CCCCCCCN(C(=O)c1ccccc1)[C@H]1CC[C@H]2[C@@H]3CC[C@H]4N(C)C(=O)CC[C@]4(C)[C@H]3CC[C@]12C,56
11,CCCCCCCCCCCCN(C(=O)c1ccc(CCl)cc1)[C@H]1CC[C@H]2[C@@H]3CC[C@H]4N(C)C(=O)CC[C@]4(C)[C@H]3CC[C@]12C,33
12,CCCCCCCCCCN(C(=O)c1ccc(Br)cc1)[C@H]1CC[C@H]2[C@@H]3CC[C@H]4N(C)C(=O)CC[C@]4(C)[C@H]3CC[C@]12C,52
13,CCCCCCCCCCN(C(=O)c1ccc(F)cc1F)[C@H]1CC[C@H]2[C@@H]3CC[C@H]4N(C)C(=O)CC[C@]4(C)[C@H]3CC[C@]12C,80
14,CCCCCCCN(Cc1ccccc1)[C@H]1CC[C@H]2[C@@H]3CC[C@H]4N(C)C(=O)CC[C@]4(C)[C@H]3CC[C@]12C,69
15,CCCCCCCCCCN(C(=O)c1ccc(CCCCCCC)cc1)[C@H]1CC[C@H]2[C@@H]3CC[C@H]4N(C)C(=O)CC[C@]4(C)[C@H]3CC[C@]12C,11
16,CCCCCCCCCCCCN(C(=O)c1ccc(OC)c(C(F)(F)F)c1)[C@H]1CC[C@H]2[C@@H]3CC[C@H]4N(C)C(=O)CC[C@]4(C)[C@H]3CC[C@]12C,51
17,CCCCCCCCCCN(C(=O)c1ccc(OC)c(C(F)(F)F)c1)[C@H]1CC[C@H]2[C@@H]3CC[C@H]4N(C)C(=O)CC[C@]4(C)[C@H]3CC[C@]12C,46
18,CCCCCCCCCCCCN(C(=O)c1ccc(C#N)cc1)[C@H]1CC[C@H]2[C@@H]3CC[C@H]4N(C)C(=O)CC[C@]4(C)[C@H]3CC[C@]12C,51
19,CCCCCCCCCCN(C(=O)c1ccc(C#N)cc1)[C@H]1CC[C@H]2[C@@H]3CC[C@H]4N(C)C(=O)CC[C@]4(C)[C@H]3CC[C@]12C,49
20,CCCCCCCN(C(=O)c1ccc(Cl)cc1)[C@H]1CC[C@H]2[C@@H]3CC[C@H]4N(C)C(=O)CC[C@]4(C)[C@H]3CC[C@]12C,65
21,CCCCCCCCCCN(C(=O)c1ccccc1Cl)[C@H]1CC[C@H]2[C@@H]3CC[C@H]4N(C)C(=O)CC[C@]4(C)[C@H]3CC[C@]12C,37
22,CCCCCCCCCCCCN(C(=O)c1ccc(F)cc1)[C@H]1CC[C@H]2[C@@H]3CC[C@H]4N(C)C(=O)CC[C@]4(C)[C@H]3CC[C@]12C,47
23,CCCCCCCCCCN(C(=O)c1ccc(CCl)cc1)[C@H]1CC[C@H]2[C@@H]3CC[C@H]4N(C)C(=O)CC[C@]4(C)[C@H]3CC[C@]12C,37
24,CCCCCCCN(CC1CCCCC1)[C@H]1CC[C@H]2[C@@H]3CC[C@H]4N(C)C(=O)CC[C@]4(C)[C@H]3CC[C@]12C,45

row,SMILES,inhibition [%]
1,CCCCCCCCCCN(C(=O)c1ccc(F)cc1)[C@H]1CC[C@H]2[C@@H]3CC[C@H]4N(C)C(=O)CC[C@]4(C)[C@H]3CC[C@]12C,71
2,CCCCCCCCCCN(C(=O)c1ccc(I)cc1)[C@H]1CC[C@H]2[C@@H]3CC[C@H]4N(C)C(=O)CC[C@]4(C)[C@H]3CC[C@]12C,39
3,CCCCCCCCCCN(C(=O)c1cccc(CCl)c1)[C@H]1CC[C@H]2[C@@H]3CC[C@H]4N(C)C(=O)CC[C@]4(C)[C@H]3CC[C@]12C,30
4,CCCCCCCN(C(=O)c1cccc(CCl)c1)[C@H]1CC[C@H]2[C@@H]3CC[C@H]4N(C)C(=O)CC[C@]4(C)[C@H]3CC[C@]12C,24
5,CCCCCCCCCCN(C(=O)c1c(Cl)cccc1Cl)[C@H]1CC[C@H]2[C@@H]3CC[C@H]4N(C)C(=O)CC[C@]4(C)[C@H]3CC[C@]12C,36
6,CCCCCCCN(C(=O)C1CCCCC1)[C@H]1CC[C@H]2[C@@H]3CC[C@H]4N(C)C(=O)CC[C@]4(C)[C@H]3CC[C@]12C,0
7,CCCCCCCN(C(=O)c1ccccc1Cl)[C@H]1CC[C@H]2[C@@H]3CC[C@H]4N(C)C(=O)CC[C@]4(C)[C@H]3CC[C@]12C,37
8,CCCCCCCCCCCCN(C(=O)c1cccc(CCl)c1)[C@H]1CC[C@H]2[C@@H]3CC[C@H]4N(C)C(=O)CC[C@]4(C)[C@H]3CC[C@]12C,45
9,CCCCCCCN(C(=O)c1c(F)cccc1C(F)(F)F)[C@H]1CC[C@H]2[C@@H]3CC[C@H]4N(C)C(=O)CC[C@]4(C)[C@H]3CC[C@]12C,49
10,CCCCCCCN(C(=O)c1cc(F)cc(F)c1)[C@H]1CC[C@H]2[C@@H]3CC[C@H]4N(C)C(=O)CC[C@]4(C)[C@H]3CC[C@]12C,56
11,CCCCCCCN(C(=O)c1cc(F)ccc1F)[C@H]1CC[C@H]2[C@@H]3CC[C@H]4N(C)C(=O)CC[C@]4(C)[C@H]3CC[C@]12C,59
12,CCCCCCCCCCN(C(=O)c1cc(F)ccc1F)[C@H]1CC[C@H]2[C@@H]3CC[C@H]4N(C)C(=O)CC[C@]4(C)[C@H]3CC[C@]12C,56
13,CCCCCCCN(C(=O)c1ccc(I)cc1)[C@H]1CC[C@H]2[C@@H]3CC[C@H]4N(C)C(=O)CC[C@]4(C)[C@H]3CC[C@]12C,60
14,CCCCCN(C(=O)c1ccc(Br)cc1)[C@H]1CC[C@H]2[C@@H]3CC[C@H]4N(C)C(=O)CC[C@]4(C)[C@H]3CC[C@]12C,63
15,CCCCCCCCCCN(C(=O)c1c(F)cccc1C(F)(F)F)[C@H]1CC[C@H]2[C@@H]3CC[C@H]4N(C)C(=O)CC[C@]4(C)[C@H]3CC[C@]12C,19
16,CCCCCCCCCCN(C(=O)c1c(F)c(F)c(F)c(F)c1F)[C@H]1CC[C@H]2[C@@H]3CC[C@H]4N(C)C(=O)CC[C@]4(C)[C@H]3CC[C@]12C,28
17,CCCCCCCCCCN(C(=O)c1c(F)cccc1F)[C@H]1CC[C@H]2[C@@H]3CC[C@H]4N(C)C(=O)CC[C@]4(C)[C@H]3CC[C@]12C,77
18,CCCCCCCCCCCCN(C(=O)c1ccc(Br)cc1)[C@H]1CC[C@H]2[C@@H]3CC[C@H]4N(C)C(=O)CC[C@]4(C)[C@H]3CC[C@]12C,52
19,CCCCCCCN(C(=O)c1ccc(F)cc1F)[C@H]1CC[C@H]2[C@@H]3CC[C@H]4N(C)C(=O)CC[C@]4(C)[C@H]3CC[C@]12C,73
20,CCCCCCCN(C(=O)c1ccc(OC)c(C(F)(F)F)c1)[C@H]1CC[C@H]2[C@@H]3CC[C@H]4N(C)C(=O)CC[C@]4(C)[C@H]3CC[C@]12C,59
21,CCCCCCCN(C(=O)c1ccc(C(C)(C)C)cc1)[C@H]1CC[C@H]2[C@@H]3CC[C@H]4N(C)C(=O)CC[C@]4(C)[C@H]3CC[C@]12C,29
22,CCCCCCCN(C(=O)c1ccc(C#N)cc1)[C@H]1CC[C@H]2[C@@H]3CC[C@H]4N(C)C(=O)CC[C@]4(C)[C@H]3CC[C@]12C,56
23,CCCCCCCN(C(=O)c1ccc(Br)cc1)[C@H]1CC[C@H]2[C@@H]3CC[C@H]4N(C)C(=O)CC[C@]4(C)[C@H]3CC[C@]12C,68
24,CCCCCCCc1ccc(C(=O)N(CCCCCCC)[C@H]2CC[C@H]3[C@@H]4CC[C@H]5N(C)C(=O)CC[C@]5(C)[C@H]4CC[C@]23C)cc1,24

# Molecular target: T1, 3-keto-steroid reductase/17-beta-hydroxysteroid dehydrogenase 7 (Homo sapiens)
# Settings: HEK293, at 3 µM
# Description: Inhibition of human 17beta-HSD7 expressed in HEK293 cells assessed as inhibition of reduction of [14C]estrone into [14C]estradiol at 3 uM after 7 hrs
row,SMILES,inhibition [%]
1,C[C@]12CC=C3c4ccc(O)cc4CC[C@H]3[C@@H]1CCC2=O,24
2,C[C@]12CC[C@H](O)C[C@@H]1CC[C@@H]1[C@@H]2CC[C@]2(C)[C@@H](O)CC[C@@H]12,4.5
3,CC(=O)[C@@]1(O)CC[C@H]2[C@@H]3CC=C4C[C@@H](O)CC[C@]4(C)[C@H]3CC[C@@]21C,4.1
4,C[C@]12CC[C@H](O)C[C@@H]1CC[C@@H]1[C@@H]2CC[C@]2(C)C(=O)CC[C@@H]12,8.1
5,CC(=O)[C@@]1(O)CC[C@H]2[C@@H]3CC[C@H]4CC(=O)CC[C@]4(C)[C@H]3CC[C@@]21C,14.5
6,C[C@]12CC[C@@H]3c4ccc(O)cc4CC[C@H]3[C@@H]1CCC2=O,10.1
7,C[C@]12CC[C@@H]3c4ccc(O)cc4CC[C@H]3[C@@H]1C[C@@H](O)[C@@H]2O,29.5
8,CC(C)(O)C(=O)Nc1ccc([N+](=O)[O-])c(C(F)(F)F)c1,8.2
9,C[C@]12CC[C@H]3C(=CCc4cc(O)ccc43)[C@@H]1CCC2=O,0
10,C[C@]12CC[C@H]3[C@@H](CC=C4C[C@@H](O)CC[C@@]43C)[C@@H]1CC[C@@H]2O,29.7
11,C[C@]12CCC(=O)C[C@@H]1CC[C@@H]1[C@@H]2CC[C@]2(C)[C@@H](O)CC[C@@H]12,49.6
12,C[C@]12C=CC(=O)C=C1CC[C@@H]1[C@@H]2CC[C@]2(C)C(=O)CC[C@@H]12,21.3
13,C[C@]12CCC(=O)C=C1CC[C@@H]1[C@@H]2[C@@H](O)C[C@@]2(C)[C@H]1CC[C@]2(O)C(=O)CO,10.3
